In patent US20260028352A1, “MACROCYCLIC IMIDAZO [1,2-B] PYRIDAZINE DERIVATIVE, PREPARATION METHOD THEREFOR, AND USE THEREOF” (SUZHOU LANGRUI BIOPHARMACEUTICAL CO., LTD., priority 2022, published 2026):

These compounds were tested on Ba/F3-TPM3-NTRK1-G667C cells (assay: Growth inhibition of Ba/F3-TPM3-NTRK1-G667C cells (Cell Titer-Glo)). Settings: 72 hours, CTG; read-out: inhibitory activity IC50 Ba/F3-TPM3-NTRK1-G667C.
Assay type: cell-based
Procedure: Then the solutions were subjected to a gradient dilution with DMSO: a clean, sterile V-bottom 96-well microplate was placed in the biological safety cabinet. First, 4 μL of DMSO was added to well B2 and 10 μL of DMSO was added to wells B3-B11 respectively; Next, 6 μL of the 10 mM solution was added to well B2. The microplate was pipetted up and down 10 times for mixing. […] Mixing was performed by pipetting up and down 10 times. The solution was diluted in order until well B10. only DMSO was added to well B11 (no compound).
6× Compound Solution Preparation (6-fold dilution, × represents dilution factor): (Initial final concentration: 10 μM), a clean, sterile V-bottom 96-well microplate was placed in the biological safety cabinet. 99 μL of cell culture medium was added to each well from B2 to G11. By using a 12-channel pipettor, 1 μL of the compound solution prepared in the previous step was added into the corresponding wells. The solutions were pipetted up and down 10 times to mix the solutions. The highest concentration of compound in this step was 60 μM.
Treatment of Cells: the above-prepared cell culture plate was taken out of the incubator. 20 μL of compound solution from each well was added to the corresponding cell culture wells. The lowest pipetting speed was used and touching the bottom of the plate was avoided. The culture plate was gently shaked to mix the compound solution, then the plate was returned to the incubator for further culture for 72 hours.
The highest treatment concentration of the compound was 10 μM. After 72 hours of treatment, the Cell Titer-Glo (CTG) assay was performed. First, the cell culture plate was removed from the CO2 incubator and allowed to stand at room temperature for 30 minutes to ensure uniform temperature of the plate. The pre-prepared Cell Titer-Glo reagent (following the manufacturer's instructions) was taken and allowed to stand at room temperature to thaw. 60 μL of Cell Titer-Glo reagent was added to each well containing cells. The cells were incubated on a horizontal shaker in a dark place at 225 rpm for 1 hour at room temperature. Then, a Tecan Spark microplate reader was used to read the plate using chemiluminescence according to the manufacturer's instructions.

IC50, < 100 nM:
CC1Nc2ccc3ncc(n3n2)-c2cc(ccn2)OCc2ccc(F)cc21 (stereo not shown) [Example I-13, (E)-5^4-fluoro-6-methyl-3-oxa-7-aza-1(3,6)-imidazo[1,2-b]pyridazina-2(2,4)-pyridina-5(1,2)-benzenacycloheptaphane]
C[C@@H]1Cc2ccnc(c2)-c2cnc3ccc(nn23)N[C@H](C)c2cc(F)ccc2O1 [Example I-34, (4R,7R,E)-5^5-fluoro-4,7-dimethyl-6-oxa-3-aza-2(3,6)-imidazo[1,2-b]pyridazina-1(2,4)-pyridina-5(1,2)-benzenacyclooctaphane]
C[C@@H]1Cc2cc(ncn2)-c2cnc3ccc(nn23)N[C@H](C)c2cc(F)ccc2O1 [Example I-35, (4R,7R,E)-5^5-fluoro-4,7-dimethyl-6-oxa-3-aza-2(3,6)-imidazo[1,2-b]pyridazina-1(4,6)-pyrimidina-5(1,2)-benzenacyclooctaphane]
C[C@@H]1Cc2ccnc(c2)-c2cnc3ccc(nn23)N[C@H](C)c2cc(F)cnc2O1 [Example I-36, (4R,7R,E)-5^5-fluoro-4,7-dimethyl-6-oxa-3-aza-2(3,6)-imidazo[1,2-b]pyridazina-1(2,4), 5(3,2)-dipyridinacyclooctaphane]
C[C@@H]1Cc2ccnc(c2)-c2cnc3ccc(nn23)N2CCC[C@@H]2c2cc(F)ccc2O1 [Example I-37, (3^2R,6R,E)-4^5-fluoro-6-methyl-5-oxa-2(3,6)-imidazo[1,2-b]pyridazina-1(2,4)-pyridina-3(1,2)-pyrrolidina-4(1,2)-benzenacycloheptaphane]
C[C@@H]1Cc2ccnc(c2)-c2cnc3ccc(nn23)N2CCC[C@@H]2c2cc(F)cnc2O1 [Example I-38, (3^2R,6R,E)-4^5-fluoro-6-methyl-5-oxa-2(3,6)-imidazo[1,2-b]pyridazina-1(2,4),4(3,2)-dipyridina-3(1,2)-pyrrolidinacycloheptaphane]
C[C@H]1Nc2ccc3ncc(n3n2)-c2cc(ccn2)N2CC[C@H](C2)Oc2ccc(F)cc21 [Example I-41, (3^3R,6R,E)-5^4-fluoro-6-methyl-4-oxa-7-aza-1(3,6)-imidazo[1,2-b]pyridazina-2(2,4)-pyridina-3(1,3)-pyrrolidina-5(1,2)-benzenacycloheptaphane]
C[C@H]1Nc2ccc3ncc(n3n2)-c2cc(ccn2)N2CC[C@@H](C2)Oc2ccc(F)cc21 [Example I-42, (3^3S,6R,E)-5^4-fluoro-6-methyl-4-oxa-7-aza-1(3,6)-imidazo[1,2-b]pyridazina-2(2,4)-pyridina-3(1,3)-pyrrolidina-5(1,2)-benzenacycloheptaphane]
C[C@H]1Nc2ccc3ncc(n3n2)-c2cc(ccn2)N2CCC[C@H](C2)Oc2ccc(F)cc21 [Example I-43, (3^3R,6R,E)-5^4-fluoro-6-methyl-4-oxa-7-aza-1(3,6)-imidazo[1,2-b]pyridazina-2(2,4)-pyridina-3(1,3)-piperidina-5(1,2)-benzenacycloheptaphane]
C[C@H]1Nc2ccc3ncc(n3n2)-c2cc(ccn2)N2CCC[C@@H](C2)Oc2ccc(F)cc21 [Example I-44, (3^3S,6R,E)-5^4-fluoro-6-methyl-4-oxa-7-aza-1(3,6)-imidazo[1,2-b]pyridazina-2(2,4)-pyridina-3(1,3)-piperidina-5(1,2)-benzenacycloheptaphane]
Fc1ccc2c(c1)[C@H]1CCCN1c1ccc3ncc(n3n1)-c1cc(ccn1)[C@H]1CCC[C@H]1O2 [Example I-45, (8aR,11aR,16bR,E)-15-fluoro-8a,10,11,11a,16b,17,18,19-octahydro-9H-1,21-etheno-4,8-(metheno)benzo[b]cyclopenta[o]imidazo[1,5-h]pyrrolo[2,1-d][1]oxa[5,7,8,11]tetraazacyclohexadecine]
Fc1ccc2c(c1)[C@H]1CCCN1c1ccc3ncc(n3n1)-c1cc(ccn1)[C@@H]1CCC[C@H]1O2 [Example I-46, (8aS,11aR,16bR,E)-15-fluoro-8a,10,11,11a,16b,17,18,19-octahydro-9H-1,21-etheno-4,8-(metheno)benzo[b]cyclopenta[o]imidazo[1,5-h]pyrrolo[2,1-d][1]oxa[5,7,8,11]tetraazacyclohexadecine]
Fc1ccc2c(c1)C1(CC1)Nc1ccc3ncc(n3n1)-c1cc(ccn1)CO2 [Example I-47, (E)-4′-fluorospiro[cyclopropane-1,6′-4-oxa-7-aza-1(3,6)-imidazo[1,2-b]pyridazina-2(2,4)-pyridina-5(1,2)-benzenacycloheptaphane]]
CC1(C)Nc2ccc3ncc(n3n2)-c2cc(ccn2)COc2ccc(F)cc21 [Example I-48, (E)-5^4-fluoro-6,6-dimethyl-4-oxa-7-aza-1(3,6)-imidazo[1,2-b]pyridazina-2(2,4)-pyridina-5(1,2)-benzenacycloheptaphane]
Fc1cnc2c(c1)[C@H]1CCCN1c1ccc3ncc(n3n1)-c1cc(ccn1)CO2 [Example I-51, (14bR,E)-13-fluoro-14b,15,16,17-tetrahydro-9H-1,19-etheno-4,8-(metheno)imidazo[1,5-h]pyrido[2,3-b]pyrrolo[2,1-d][1]oxa[5,7,8,11]tetraazacyclopentadecine]
Fc1ccc2c(c1)[C@H]1CCCN1c1ccc3ncc(n3n1)-c1cc(ccn1)CCO2 [Example I-53, (3^2R,E)-4^5-fluoro-5-oxa-2(3,6)-imidazo[1,2-b]pyridazina-1(2,4)-pyridina-3(1,2)-pyrrolidina-4(1,2)-benzenacycloheptaphane]
Fc1cnc2c(c1)[C@H]1CCCN1c1ccc3ncc(n3n1)-c1cc(ccn1)CCO2 [Example I-55, (3^2R,E)-4^5-fluoro-5-oxa-2(3,6)-imidazo[1,2-b]pyridazina-1(2,4),4(3,2)-dipyridina-3(1,2)-pyrrolidinacycloheptaphane]
Fc1ccc2c(c1)[C@H]1CCCN1c1ccc3ncc(n3n1)-c1cc(ncn1)CO2 [Example I-57, (14bR,E)-13-fluoro-14b,15,16,17-tetrahydro-9H-1,19-etheno-4,8-(metheno)benzo[n]imidazo[5,1-h]pyrrolo[1,2-l][1]oxa[4,6,9,10,12]pentaazacyclopentadecine]
Fc1cnc2c(c1)[C@H]1CCCN1c1ccc3ncc(n3n1)-c1cc(ncn1)CO2 [Example I-59, (14bR,E)-13-fluoro-14b,15,16,17-tetrahydro-9H-1,19-etheno-4,8-(metheno)imidazo[5,1-h]pyrido[3,2-n]pyrrolo[1,2-l][1]oxa[4,6,9,10,12]pentaazacyclopentadecine]
Fc1ccc2c(c1)[C@H]1CCCN1c1ccc3ncc(n3n1)-c1nccc(n1)CO2 [Example I-61, (14bR,E)-13-fluoro-14b,15,16,17-tetrahydro-9H-4,8-(azeno)-1,19-etheno benzo[b]imidazo[1,5-h]pyrrolo[2,1-d][1]oxa[5,7,8,11]tetraazacyclopentadecine]
Fc1cnc2c(c1)[C@H]1CCCN1c1ccc3ncc(n3n1)-c1nccc(n1)CO2 [Example I-63, (14bR,E)-13-fluoro-14b,15,16,17-tetrahydro-9H-4,8-(azeno)-1,19-etheno imidazo[1,5-h]pyrido[2,3-b]pyrrolo[2,1-d][1]oxa[5,7,8,11]tetraazacyclopentadecine]
Fc1ccc2c(c1)[C@H]1CCCN1c1ccc3ncc(n3n1)-c1cc(cnn1)CO2 [Example I-65, (14bR,E)-13-fluoro-14b,15,16,17-tetrahydro-9H-1,19-etheno-4,8-(metheno)benzo[n]imidazo[5,1-h]pyrrolo[1,2-l][1]oxa[5,6,9,10,12]pentaazacyclopentadecine]
Fc1cnc2c(c1)[C@H]1CCCN1c1ccc3ncc(n3n1)-c1cc(cnn1)CO2 [Example I-67, (14bR,E)-13-fluoro-14b,15,16,17-tetrahydro-9H-1,19-etheno-4,8-(metheno)imidazo[5,1-h]pyrido[3,2-n]pyrrolo[1,2-l][1]oxa[5,6,9,10,12]pentaazacyclopentadecine]
Fc1cnc2c(c1)[C@H]1CCCN1c1ccc3ncc(n3n1)-c1cc(ncn1)CCO2 [Example I-71, (3^2R,E)-4^5-fluoro-5-oxa-2(3,6)-imidazo[1,2-b]pyridazina-1(4,6)-pyrimidina-4(3,2)-pyridina-3(1,2)-pyrrolidinacycloheptaphane]
C[C@H]1Nc2ccc3ncc(n3n2)-c2cc(ncn2)CCOc2ncc(F)cc21 [Example I-73, (4R,E)-5^5-fluoro-4-methyl-6-oxa-3-aza-2(3,6)-imidazo[1,2-b]pyridazina-1(4,6)-pyrimidina-5(3,2)-pyridinacyclooctaphane]
